In patent US20070179060A1, “6-(Poly-substituted aryl)-4-aminopicolinates and their use as herbicides” (priority 2006, published 2007):

How the values were obtained:
[1] = tested on: Veronica persica; assay: Postemergence herbicidal activity in cereal crops; format: in vivo; conditions: post-emergent, 17.5 g ai/ha, after 20-22 days; for pest or weed control at 17.5 g/ha: Veronica persica, post-emergence, 480 h, read-out: % Control VERPE
How it was run: (§1)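 Plants are raised in a greenhouse for 7-36 days and used at the second to third true leaf stage. Compounds in a mixed organic–aqueous carrier with crop oil and surfactant are sprayed postemergence at 187 L/ha. Treated plants return to the greenhouse with sub-irrigation, alongside blank-sprayed controls.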

[2] = tested on: barley (Hordeum vulare); assay: Postemergence herbicidal activity in cereal crops; format: in vivo; conditions: crop, post-emergent, 17.5 g ai/ha, after 20-22 days; for pest or weed control at 17.5 g/ha: Hordeum, post-emergence, 480 h, read-out: % Control HORVS
How it was run: as §1

[3] = tested on: wheat (Triticum aestivum); assay: Postemergence herbicidal activity in cereal crops; format: in vivo; conditions: crop, post-emergent, 17.5 g ai/ha, after 20-22 days; for plant injury at 17.5 g/ha: Triticum aestivum, post-emergence, 480 h, read-out: % Control TRZAS
How it was run: as §1

[4] = tested on: Lamium purpureum; assay: Postemergence herbicidal activity in cereal crops; format: in vivo; conditions: post-emergent, 17.5 g ai/ha, after 20-22 days; for pest or weed control at 17.5 g/ha: Lamium purpureum, post-emergence, 480 h, read-out: % Control LAMPU
How it was run: as §1

[5] = tested on: Papaver rhoeas; assay: Postemergence herbicidal activity in cereal crops; format: in vivo; conditions: post-emergent, 17.5 g ai/ha, after 20-22 days; for pest or weed control at 17.5 g/ha: Papaver rhoeas, post-emergence, 480 h, read-out: % Control PAPRH
How it was run: as §1

[6] = tested on: Galium aparine; assay: Postemergence herbicidal activity in cereal crops; format: in vivo; conditions: post-emergent, 17.5 g ai/ha, after 20-22 days; for pest or weed control at 17.5 g/ha: Galium aparine, post-emergence, 480 h, read-out: % Control GALAP
How it was run: as §1

[7] = tested on: redroot pigweed (Amaranthus retroflexus); assay: Postemergence herbicidal activity; format: in vivo; conditions: post-emergent, 140 g ai/ha, after 14 days; for pest or weed control at 140 g/ha: Amaranthus retroflexus, post-emergence, 336 h, read-out: % Control AMARE
How it was run: (§2)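 Plants grown 7-21 days in greenhouse (about 15 h photoperiod, 23-29° C day, 22-28° C night) to first or second true leaf stage. Compounds in acetone/water/isopropanol/DMSO carrier with crop oil concentrate and Triton X-155 sprayed overhead at 187 L/ha; controls received solvent blank. Plants sub-irrigated afterwards; dose responses analysed by probit analysis.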

[8] = tested on: velvetleaf (Abutilon theophrasti); assay: Postemergence herbicidal activity; format: in vivo; conditions: post-emergent, 140 g ai/ha, after 14 days; for pest or weed control at 140 g/ha: Abutilon theophrasti, post-emergence, 336 h, read-out: % Control ABUTH
How it was run: as §2

[9] = tested on: lambsquarter (Chenopodium album); assay: Postemergence herbicidal activity; format: in vivo; conditions: post-emergent, 140 g ai/ha, after 14 days; for pest or weed control at 140 g/ha: Chenopodium album, post-emergence, 336 h, read-out: % Control CHEAL
How it was run: as §2

[10] = tested on: Cyperus difformis; assay: Herbicidal activity in transplanted paddy rice; format: in vivo; conditions: paddy water application, after 3 weeks
Protocol: (§3) Weed seeds or nutlets of the desired test plant species were planted in puddled soil (mud) prepared by mixing a non-sterilized mineral soil (28 percent silt, 18 percent clay, and 54 percent sand, with a pH of about 7.3 to 7.8 and an organic matter content of about 1.0 percent) and water at a ratio of 100 kg of soil to 19 L of water. The prepared mud was dispensed in 250 mL aliquots into 480 mL non-perforated plastic pots with a surface area of 91.6 square centimeters leaving a headspace of 3 centimeters in each pot. […] Seedlings at the second or third leaf stage of growth were transplanted into 650 mL of mud contained in 960 mL non-perforated plastic pots with a surface area of 91.6 square centimeters 4 days prior to herbicide application. The paddy was created by filling the 3 centimeter headspace of the pots with water. When required to ensure good germination and healthy plants, a fungicide treatment and/or other chemical or physical treatment was applied. The plants were grown for 4-14 days in a greenhouse with an approximate 14 hour photoperiod which was maintained at about 29° C. during the day and 26° C. during the night. Nutrients were added as Osmocote (17:6:10, N:P:K+minor nutrients) at 2 g per pot. Water was added on a regular basis to maintain the paddy flood, and supplemental lighting was provided with overhead metal halide 1000-Watt lamps as necessary. The plants were employed for testing when they reached the second or third true leaf stage. A weighed amount, determined by the highest rate to be tested, of each test compound was placed in a 120 mL glass vial and was dissolved in 20 mL of acetone to obtain concentrated stock solutions. […] Application rates of ½×, ¼×, ⅛× and 1/16× of the high rate were obtained by injecting an appropriate amount of the stock solution into the aqueous layer of the paddy. Control plants were treated in the same manner with the solvent blank. The treated plants and control plants were placed in a greenhouse as described above and water was added as needed to maintain a paddy flood.

[11] = tested on: rice (Orysa sativa var. Japonica); assay: Herbicidal activity in transplanted paddy rice; format: in vivo; conditions: transplant rice (crop), paddy water application, after 3 weeks
Protocol: as §3

[12] = tested on: Scirpus juncoides; assay: Herbicidal activity in transplanted paddy rice; format: in vivo; conditions: paddy water application, after 3 weeks
Protocol: as §3

[13] = tested on: Echinochloa crus-galli; assay: Herbicidal activity in transplanted paddy rice; format: in vivo; conditions: paddy water application, after 3 weeks
Protocol: as §3

[14] = tested on: Monochoria vaginalis; assay: Herbicidal activity in transplanted paddy rice; format: in vivo; conditions: paddy water application, after 3 weeks
Protocol: as §3

[15] = Cyperus difformis, 504 h, 17.5 g ai/ha, read-out: % Control CYPDI
[16] = Oryza sativa, 504 h, 17.5 g ai/ha
[17] = Schoenoplectiella juncoides, 504 h, 17.5 g ai/ha, read-out: % Control SCPJU
[18] = Echinochloa crus-galli, 504 h, 17.5 g ai/ha, read-out: % Control ECHCG
[19] = Pontederia vaginalis, 504 h, 17.5 g ai/ha, read-out: % Control MOOVA

Compound	pest or weed control at 17.5 g/ha [1] [%]	pest or weed control at 17.5 g/ha [2] [%]	plant injury at 17.5 g/ha [3] [%]	pest or weed control at 17.5 g/ha [4] [%]	pest or weed control at 17.5 g/ha [5] [%]	pest or weed control at 17.5 g/ha [6] [%]	pest or weed control at 140 g/ha [7] [%]	pest or weed control at 140 g/ha [8] [%]	pest or weed control at 140 g/ha [9] [%]	pest or weed control at 17.5 g/ha [10, 15] [%]	pest or weed control at 17.5 g/ha [11, 16] [%]	pest or weed control at 17.5 g/ha [12, 17] [%]	pest or weed control at 17.5 g/ha [13, 18] [%]	pest or weed control at 17.5 g/ha [14, 19] [%]	% Control VERPE [1] [%]	% Control HORVS [2] [%]	% Control TRZAS [3] [%]	% Control LAMPU [4] [%]	% Control PAPRH [5] [%]	% Control GALAP [6] [%]	further results
CCCCOC(=O)c1nc(-c2ccc(Br)c(OC)c2F)cc(N)c1Cl [Compound 90, 4-Amino-3-chloro-6-(4-bromo-2-fluoro-3-methoxyphenyl)pyridine-2-carboxylic acid, butyl ester]	25	10	0	100	95	99	85	100	100	100	0	90	30	100							
CCCCOC(=O)c1nc(-c2ccc(Cl)c(C(C)F)c2F)cc(N)c1Cl (stereo not drawn) [Compound 91, 4-Amino-3-chloro-6-[4-chloro-2-fluoro-3-(1-fluoroethyl)phenyl)pyridine-2-carboxylic acid, butyl ester]	45	10	20	100	60	90	100	95	100												pest or weed control at 35 g/ha ([10]; Cyperus difformis, 504 h, 35 g ai/ha, read-out: % Control CYPDI): 100%; pest or weed control at 35 g/ha ([11]; Oryza sativa, 504 h, 35 g ai/ha): 0%; pest or weed control at 35 g/ha ([12]; Schoenoplectiella juncoides, 504 h, 35 g ai/ha, read-out: % Control SCPJU): 99%; pest or weed control at 35 g/ha ([13]; Echinochloa crus-galli, 504 h, 35 g ai/ha, read-out: % Control ECHCG): 99%; pest or weed control at 35 g/ha ([14]; Pontederia vaginalis, 504 h, 35 g ai/ha, read-out: % Control MOOVA): 100%
CCCCOCCOC(=O)c1nc(-c2ccc(Cl)c(OC)c2F)cc(N)c1Cl [Compound 92, 4-Amino-3-chloro-6-(4-chloro-2-fluoro-3-methoxyphenyl)pyridine-2-carboxylic acid, 2-butoxy-ethyl ester]										99	0	90	40	100	30	0	0	100	95	99	melting point: 72 to 74 °C; % Control AMARE [7]: 100%; % Control ABUTH [8]: 100%; % Control CHEAL [9]: 100%
CCN(CC)CC.COc1c(Cl)ccc(-c2cc(N)c(Cl)c(C(=O)O)n2)c1F [Compound 135, 4-amino-3-chloro-6-(4-chloro-2-fluoro-3-methoxyphenyl)-pyridine-2-carboxylic acid, triethyl amine salt]															60	0	0	100	100	90	% Control CYPDI ([10]; 17.5 g ai/ha): 100%; % Control ORYSA ([11]; 17.5 g ai/ha): 10%; % Control SCPJU ([12]; 17.5 g ai/ha): 85%; % Control ECHCG ([13]; 17.5 g ai/ha): 30%; % Control MOOVA ([14]; 17.5 g ai/ha): 100%
